According to patent publication US6479555B1, “Method for inducing hepatic fibrosis by repeated administration of allylalcohol” (priority 2000, dated 2002):

Experiments:
periportal liver = conditions: in vivo; cited from earlier work
[1] = tested on: Spraque Dawley male white mice; assay: Extent of hepatic fibrosis by histological examination (Batts and Ludwig classification) after repeated allylalcohol injection; format: in vivo, white mouse
Description: (§1) Of the forty total Spraque Dawley male white mice(weight 150-200 g), 10 mice were used as a control group and 30 mice were treated with allylalcohol.
(§2) 30 mice with treated allylalcohol were devided into three groups, each containing 10 mice. The 1st group was administered an injection with allylalcohol dissolved in saline solution with 0.3 mmole/kg into a peritoneal cavity twice a week. The 2nd and 3rd groups received 0.62 mmole/kg and 0.93 mmole/kg of allylalcohol, respectively, via the same method.
(§3) The animals were maintained 23° C. and 40% of relative humidity. The intensity of illumination was maintained for 12 hours from 6 A.M. to 6 P.M. They were sacrificed after 8 weeks.
(§4) The present inventors used total of 30 Spraque-Dawley male white mice, injected 0.62 mmole/kg allylalcohol into the peritoneal cavity twice a week, and sacrificed ten mice each time after 4 weeks, 8 weeks, and 16 weeks.
(§5) The liver tissues of 30 mice obtained from the Example <1-2> were fixed in 10% formalin solution, stained with Masson's trichrome, and observed for the determination of fibrosis under light microscope.

[2] = tested on: Spraque-Dawley male white mice; assay: Quantification of hepatic fibrosis by the numerical scoring system; format: in vivo, white mouse
Text: In order to include width of fibrosis septa and fibrosis development in sinusoid as well as that between the portals, these inventors had quantified the extent of the fibrosis using the numerical scoring system reported by Castilla-Cortaza(1997) and Oberti (1997).
To systemically analyze the result of the numerical scoring system, these inventors also used the Image precessing and analysis system program (Leica Q500 MC, Leica Cambridge Ltd, Cambridge, U. K., 1994).
The length of septa was classified as score “4” when the septa showing fibrosis from one portal to the other is one whole length, score “3” for up to ⅔, score “2” for up to ⅓, and score “1” for less than ⅓. For the width of septa, the score from 2-6 was given for the mean of widths of three different periportal septa, centriperiveinal septa and perinodal septa at four different sites.
The number for the width of septa was determined by measuring the fibrotic region of blood vessel in one node that score “4” when the whole node was filled with the fibrotic strand and a large number of the septa made the micronode, score “3” when the fibrosis region occupied up to ⅔ of the whole node area, score “2” up to ⅓, and score “1” when the fibrosis strand was little in the node.
as §4, §5

[3] = tested on: Spraque Dawley male white mice; assay: Death during repeated allylalcohol treatment; format: in vivo, white mouse
Description: as §1, §2, §3, §4

[4] = tested on: Spraque-Dawley male white mice; assay: Serum alanine aminotransferase (ALT) activity; format: in vivo, white mouse; conditions: 0.62 mmole/kg i.p. twice a week
Description: as §4
To collect a specimen, the white mouse was sacrificed 72 hours after final injection. The mouse was put under general anesthesia using diethylether, and its abdomen was cut open at suspine position. 7-10 ml of whole blood was withdrawn with a syringe treated with heparine, and the liver tissue was extracted.
The collected blood sample was left at room temperature for 30 min, centrifuged at 3,000 g for 10 min. The serum was devided into several fractions and stored at −70° C. until used.
Serum alanine aminotransferase(hereinafter, as referred as “ALT”) activity was measured by using the automatic analyzer (Hitach, 747/200 type), which is based on the spectrophotometric quantification of […] loss using lactic dehydrogenase as a […] (Horder and Rej, 1983).

[5] = tested on: Spraque-Dawley male white mice; assay: Collagen content of liver tissues (dye-binding procedure of Jimenez); format: in vivo, white mouse; conditions: liver tissue
Description: The collagen content of liver tissues was measured by dye-binding procedure of Jimenez. The liver tissue fixed in 10% formalin and embedded in paraffin was sliced by 15 um of thickness and put on a slide glass.
After the paraffin was removed by xylene and alcohol, the sample was stained with the saturated picric acid solution containing 0.01% fast green FCF (Fluka AG, NO 42053, Switzerland), left at room temperature for 15 min, and washed with a phosphate buffer until most color came off. The sample was restained with the saturated picric acid solution containing 0.04% fast green and 0.1% Sirius red F3B (Gurr BDH Chemical Ltd., NO 34149, Poole, England), left at room temperature for 30 min in the darkroom, and washed as before.
The stained tissue sample was transferred into the tube containing 1 ml solution with equal volume of 0.1% sodium hydroxide and methanol, and the tube was slowly shaken until the color dissolved completely. The absorbance of the colored solution was measured with a spectrophotometer. The wavelength for maximum absorbance was 630 nm for fast green, and 540 nm for Sirius red. Since fast green also absorbed a little (7.78%) at 540 nm, these inventors made calculations correcting for the factor.
The amount of collagen per unit protein was obtained with the formula 1 using the color equivalence of 3 OD/mg protein and 37 OD/mg collagen for fast green and Sirius red, respectively. [formula]

TGF β1 mRNA = assay: Semi-quantitative measurement of TGF β1 mRNA expression in the liver tissue by RT-PCR; format: in vivo, white mouse
Description: Total RNA of the mouse liver tissue stored at −70° C. was extracted by one-step method using acid guanidinium thiocyanate-phenol-chloroform (AGPC, 1987) of Chomczynski and Sacchi. […] of the frozen liver tissue was homogenized in 1 ml of denaturing solution (4 M guanidinium thiocyanate, 25 mM sodium citrate, pH 7, 0.5% sarcosyl, 0.1 M 2-mercapto ethanol).
After the addition of 1 ml of phenol and 100 ul of chloroform were added to it, the homogenate was shaken thoroughly for 15 sec, left at 4° C. for 5 min, and centrifuged at 12,000 g and 4° C. for 15 min. The supernatant (aqueous phase) was withdrawn, mixed with equal volume of isopropanol, left at 4° C. for 15 min, and centrifuged as before.
RNA pellet was collected, washed with 75% ethanol twice, and centrifuged at 7,500 g and 4° C. for 8 min to remove ethanol. RNA pellet was dried under vacuum using the Speed Vac concentrator at −70° C. for 15 min. The dried RNA was dissolved in 20 ul of deionized distilled water(DDW) treated with 0.1% di-ethyl-pyro-carbonate (DEPC), and stored at −70° C. RNA concentration was determined by spectrophotometric measurement of absorbance at 260 nm. When the absorption ratio of A260/A280 used as an index of purity, exceeds 1.8, RNA samples were considered pure.
For the synthesis of cDNA of TGF β1 mRNA, 2 ul of total RNA extracted from the mouse liver tissue was mixed with 10 unit of Molony murine leukemia virus reverse transcriptase(M-MuLV RT), 100 ng of oligo-dT15, 1 ul of dNTP (dGTP, dATP, dTTP, dCTP), RNase inhibitor 20 unit, 0.5 ul of 100 mM dithitritol (DTT) and 4 ul of 5×buffer solution, and total volume of the reaction mixture was adjusted to 20 ul by adding 0.1% DEPC-treated DDW.
The reaction mixture was heated at 37° C. for 90 min and 95° C. for 5 min, and rapidly cooled down on ice. 80 ul of DDW was added to this cDNA mixture which was then used as a PCR template.
For amplification of TGF β1 cDNA template, a sense-primer represented by SEQ ID NO.1 and an antisense-primer represented by SEQ ID NO.2 was synthesized. The position and the PCR product size of the primer set were described in Table 7. The concentration of the synthesized primer was adjusted to 10 pmole/ul by dissolving in TE buffer solution and stored at −20° C. until used.
cDNA solution was diluted by two times until the concentration was to be 2^−1, 2^−2, 2^−3, , , , , and 2^−10, and used as PCR templates. 50 ul total of PCR reaction solution contained 4 ul of cDNA template solution, 1 unit of Taq DNA polymerase, each of 1 ul the antisense and the sense primer, 1 ul of dNTP, 5 ul of 10×buffer solution (containing 2.5 mM MgCl2) and 37.7 ul of DDW.
To prevent vaporization of the sample at high temperature, 20 ul of mineral oil was added to the reaction mixture. PCR reaction was performed with PCR automated thermal cycler (Perkin Elmer) by using a hot start method. The hot start method included a denaturation step at 94° C. for 4 min, and the primer annealing and extension step at 65° C. for 15 min (at this step, Taq DNA polymerase was added after 10 min).
The reaction system then underwent 35 cycles of heating 94° C. for 45 sec, 60° C. for 45 sec, and 72° C. for 2 min, and the extension step was completed with 5 min heating at 72° C. In the RNA synthesis, negative control was distilled water, and positive control was 1 ul of TGF β1 cDNA fragment solution provided from a Clontech Laboratory.
The amplified PCR product mixed with 6×DNA loading buffer (0.25% bromophenol blue, 0.25% xylene cylanol, 30% glycol) was analyzed by electrophoresis using 2% agarose gel containing 1 ul ethidium bromide with 1×TBE buffer solution(89 mM tris-borate, 2 mM EDTA). After the electrophoresis at 100 volt for 60 min, UV transilluminator was used to establish the visible band(FIG. 3).

mouse = mouse treated with carbon tetrachloride, cited from earlier work
[6] = 0.62 mmole/kg i.p. twice a week, 16 weeks
[7] = 2nd group, 0.62 mmole/kg i.p. twice a week, 8 weeks
[8] = liver tissues of the 30 mice of Example 1-2, Masson's trichrome
[9] = 0.62 mmole/kg i.p. twice a week, 4 weeks
[10] = 0.62 mmole/kg i.p. twice a week, 8 weeks

For C=CC=O [Acrolein, acrolein], the liver toxicity (periportal liver) is given as “intense liver toxicity”.
In the case of C=CCO [allylalcohol, Allylalcohol], the “number of mice with cirrhosis” value [1, 6] was 5, the “number of mice with moderate hepatic fibrosis” value [1, 6] was 2 and the “number of mice with severe hepatic fibrosis” value [1, 6] was 3. For the same compound, the “number of mice with mild hepatic fibrosis” value [1, 7] was 1, the “number of mice with severe hepatic fibrosis” value [1, 7] was 5 and the “number of mice with severe hepatic fibrosis” value ([1]; 3rd group, 0.93 mmole/kg i.p. twice a week, 8 weeks) was 2. For the same compound, the “number of samples classified as cirrhosis” value [1, 8] was 5, the “number of samples classified as mild” value [1, 8] was 7 and the “number of samples classified as moderate” value [1, 8] was 5. The “number of samples classified as normal” value [1, 8] was 4, the “number of samples classified as severe” value [1, 8] was 8 and the “number of mice with numerical score 1” value [2, 9] was 10. The “number of mice with numerical score 8” value [2, 10] was 4, the “number of mice with numerical score 9” value [2, 10] was 1 and the “number of mice with numerical score 10” value [2, 10] was 1. The “number of mice with numerical score 11” value [2, 10] was 2, the “number of mice with numerical score 12” value [2, 10] was 1 and the “number of mice with numerical score 7” value [2, 6] was 1. For the same compound, the “number of mice with numerical score 8” value [2, 6] was 1, the “number of mice with numerical score 10” value [2, 6] was 1 and the “number of mice with numerical score 11” value [2, 6] was 1. The “number of mice with numerical score 12” value [2, 6] was 3, the “number of mice with numerical score 13” value [2, 6] was 2 and the “number of mice with numerical score 14” value [2, 6] was 1. For the same compound, the “extent of hepatic fibrosis by the numerical scoring system, all the animals” value (“extent of hepatic fibrosis” below) ([2]; 4-week group, 0.62 mmole/kg i.p. twice a week) was “less than 2”, the “extent of hepatic fibrosis” value ([2]; 8-week group, 0.62 mmole/kg i.p. twice a week) was “higher than 7” and the “extent of hepatic fibrosis” value ([2]; 16-week group, 0.62 mmole/kg i.p. twice a week) was “higher than 7”. The numerical score ([2]; cirrhosis group of the 30 treated mice) was 12.4±1.5, the numerical score ([2]; mild group of the 30 treated mice) was 2.6±1 and the numerical score ([2]; moderate group of the 30 treated mice) was 9.0±1.7. The numerical score ([2]; printed 'control group' (first histological class) of the 30 treated mice) was 1.0±0, the numerical score ([2]; severe group of the 30 treated mice) was 9.8±1.5 and the “number of tissue samples with score of 1-6” value ([2]; treated mice of Example 1-2) was 10. For the same compound, the “number of tissue samples with score of 7-10” value ([2]; treated mice of Example 1-2) was 9, the “number of tissue samples with score of 11-14” value ([2]; treated mice of Example 1-2) was 10 and the “death (number of mice)” value [3, 9] was 0. The “death (number of mice)” value ([3]; 0.62 mmole/kg i.p. twice a week, 8 weeks (Example 1-2)) was 1, the “death (number of mice)” value [3, 6] was 0 and the “death (number of mice)” value ([3]; 1st group, 0.3 mmole/kg i.p. twice a week, 8 weeks) was 0. For the same compound, the ALT activity ([4]; 4 weeks) was 69.6±39.8 U/L, the ALT activity ([4]; 8 weeks) was 63.8±9.6 U/L and the ALT activity ([4]; 16 weeks) was 75.5±15.9 U/L. It also gave a Collagen content ([5]; treated for 4 weeks) of 110.2±11.9 ug collagen/mg protein, a Collagen content ([5]; treated for 8 weeks) of 132.5±29.3 ug collagen/mg protein and a Collagen content ([5]; treated for 16 weeks) of 157.2±94.7 ug collagen/mg protein. For the same compound, the Collagen content ([5]; treated mice with score 1-6) was 110.2±11.9 ug collagen/mg protein, the Collagen content ([5]; treated mice with score 7-10) was 131.4±30.0 ug collagen/mg protein and the Collagen content ([5]; treated mice with score 11-14) was 158.2±94.2 ug collagen/mg protein. The “TGF β1 mRNA” value (TGF β1 mRNA; treated for 4 weeks, Table 9 line printed 'Score 1-6') was 4.7±2.4 unit/total RNA 2 ug, the “TGF β1 mRNA” value (TGF β1 mRNA; treated for 8 weeks, Table 9 line printed 'Score 7-10') was 5.8±1.0 unit/total RNA 2 ug and the “TGF β1 mRNA” value (TGF β1 mRNA; treated for 16 weeks, Table 9 line printed 'Score 11-14') was 5.7±2.3 unit/total RNA 2 ug. The “TGF β1 mRNA” value (TGF β1 mRNA; treated mice with score 1-6) was 4.7±2.4 unit/total RNA 2 ug, the “TGF β1 mRNA” value (TGF β1 mRNA; treated mice with score 7-10) was 5.8±1.5 unit/total RNA 2 ug and the “TGF β1 mRNA” value (TGF β1 mRNA; treated mice with score 11-14) was 5.7±2.0 unit/total RNA 2 ug.
In the case of ClC(Cl)(Cl)Cl [carbon tetrachloride], the induction period (mouse; pretreatment with phenobarbitol) is listed as 8-10 weeks and the “time to irreversible accumulation of collagen” value (mouse) is listed as at most 20 weeks.
